Assay results from EPA's CvTdb concentration-time database.
Several values for one entry are separate records, joined by “and”; a condition that tells them apart may be missing. Equal values may be shown once.

Tests used:
[1] = tested on: rat; test: concentration in expired air after dosing; details: dosed: 1,1,1,2-tetrachloroethane, 352 ppm, inhalation, duration: 6 hr
[2] = tested on: rat; test: concentration in blood after dosing; details: dosed: 1,2-Dichloroethane, 100 mg/kg, oral, male, Wistar
[3] = tested on: rat; test: concentration in blood after dosing; negative times count back from the end of exposure; details: dosed: 1,2-dichloroethane, inhalation, duration: 6 hr, male
[4] = tested on: Rat; test: as above; details: dosed: 1,2-dichloroethane, inhalation, duration: 6 hr, Male, F344
[5] = tested on: rat; test: concentration in feces after dosing; details: dosed: benzo[a]pyrene, 200 mg/kg, iv, male, LIO
[6] = tested on: rat; test: concentration in urine after dosing; details: dosed: benzo[a]pyrene, 200 mg/kg, iv, male, LIO
[7] = tested on: rat; test: concentration in lung after dosing; details: dosed: benzo[a]pyrene, inhalation, duration: 4 hr, F344
[8] = tested on: rat; test: concentration in plasma after dosing; details: dosed: benzo[a]pyrene, inhalation, duration: 4 hr, F344

ClCC(Cl)(Cl)Cl [1,1,1,2-tetrachloroethane]
[1]
Details | concentration in expired air [ng/mL]
0.2586 h | 89.8
0.5066 h | 97.9
0.7323 h | 90.1
0.7758 h | 98.6
1.001 h | 79.1
1.012 h | 83.8
1.506 h | 67.5
1.507 h | 72.8
2.766 h | 65.7
3.982 h | 62.9
4.003 h | 52
4.477 h | 59.7
5.5 h | 58.8
6.5 h | 46.7
6.511 h | 41.4
6.995 h | 40.1
7.007 h | 49.3
7.986 h | 39.2
7.995 h | 32.7
8.987 h | 36.6
8.997 h | 31
9.986 h | 27
9.987 h | 29.5

ClCCCl [1,2-Dichloroethane]
[2]
Details | concentration in blood [ng/mL]
0.1036 h | 52400
0.1179 h | 13300
0.132 h | 43800
0.1651 h | 12600
0.1867 h | 44200
0.1921 h | 12300
0.2321 h | 11400
0.2347 h | 43700
0.2763 h | 39500
0.2876 h | 11900
0.3244 h | 38100
0.3422 h | 11800
0.3792 h | 37800
0.3969 h | 11700
0.4271 h | 38800
0.4374 h | 11200
0.5094 h | 37200
0.5261 h | 10800
0.7703 h | 31800
0.7778 h | 9360
1.018 h | 25700
1.028 h | 6280
1.518 h | 20100
1.525 h | 4200
2.019 h | 14600
2.026 h | 4360
2.519 h | 10500
2.525 h | 3610
3.016 h | 1910
3.027 h | 7170
3.517 h | 2720
3.527 h | 4850
4.013 h | 3030
4.015 h | 1450
4.508 h | 862
4.52 h | 1720
5.001 h | 703
5.014 h | 1210
145 s | 5240
247 s | 58200
291 s | 10900

ClCCCl [1,2-dichloroethane]
Details | concentration in blood
[3], 0 h, 200 ppm, Fischer-344 | 2940 ng/mL
[3], 0.1607 h, 150 ppm, Osborne-Mendel | 3870 ng/mL
[3], 0.2398 h, 150 ppm, Osborne-Mendel | 2830 ng/mL
[3], 0.25 h, 200 ppm, Fischer-344 | 851 ng/mL
[3], 0.3387 h, 150 ppm, Osborne-Mendel | 2010 ng/mL
[3], 0.4969 h, 150 ppm, Osborne-Mendel | 1320 ng/mL
[3], 0.665 h, 150 ppm, Osborne-Mendel | 670 ng/mL
[3], 0.9913 h, 150 ppm, Osborne-Mendel | 708 ng/mL
[3], 1.328 h, 150 ppm, Osborne-Mendel | 279 ng/mL
[3], 258 s, 150 ppm, Osborne-Mendel | 5010 ng/mL
[3], -3 h, 200 ppm, Fischer-344, during exposure | 3170 ng/mL
[3], -5 h, 200 ppm, Fischer-344, during exposure | 1920 ng/mL
[3], -5.5 h, 200 ppm, Fischer-344, during exposure | 1320 ng/mL
[3], -5.75 h, 200 ppm, Fischer-344, during exposure | 768 ng/mL
[4], -3.002 h, 50 ppm, during exposure | 1340 ng/mL
[4], -3.015 h, 250 ppm, during exposure | 29300 ng/mL
[4], -4.01 h, 50 ppm, during exposure | 1340 ng/mL
[4], -4.01 h, 250 ppm, during exposure | 23600 ng/mL
[4], -5.005 h, 50 ppm, during exposure | 926 ng/mL
[4], -5.005 h, 250 ppm, during exposure | 11700 ng/mL
[4], -5.515 h, 50 ppm, during exposure | 476 ng/mL
[4], -5.515 h, 250 ppm, during exposure | 5840 ng/mL and 6640 ng/mL
[4], -18 s, 50 ppm, during exposure | 1360 ng/mL
[4], -18 s, 250 ppm, during exposure | 30800 ng/mL

[3], 150 ppm, Osborne-Mendel, during exposure
Details | concentration in blood [ng/mL]
-27 s | 9390
-5.001 h | 5160
-3.34 h | 8640
-2.005 h | 8290

concentration in blood [ng/mL], [4]
Details | 50 ppm | 250 ppm
0.1443 h | 815 | 24500
0.2313 h | 664 | –
0.2438 h | – | 19700
0.3184 h | 495 | –
0.3308 h | – | 15800
0.4925 h | 239 | 12300
0.7413 h | 131 | 8050
0.99 h | – | 5340
1.488 h | – | 1940
1.973 h | – | 664
2.993 h | – | 124
295 s | 962 | 26800

Oc1ccc2ccc3c4ccccc4cc4ccc1c2c43 [3-OH-BP]
Details | concentration in feces, [5] [µg/kg] | concentration in urine, [6] [µg/kg]
24 h | 6.9 | 3.9
48 h | 9.9 | 5.4
72 h | 8.9 | 6.2
96 h | 9.6 | 5
120 h | 7.7 | 4.2
144 h | 9.1 | 2.6
168 h | 8.4 | 2.6
192 h | 4 | 2.5
216 h | 3.3 | 2.8
240 h | 3.2 | 2.7
264 h | 3.1 | 2.5
288 h | 2.5 | 2.6
312 h | 2.5 | 2.5
336 h | 2.3 | 2.2
360 h | 2.3 | 2.5

Oc1ccc2ccc3c4ccccc4cc4ccc1c2c43 [3-hydroxy benzo[a]pyrene]
Details | concentration in lung, 0.05 h [ng/mL] | concentration in lung, 1 h [ng/mL] | concentration in lung, 2 h [ng/mL] | concentration in lung, 4 h [ng/mL] | concentration in plasma, 0.5 h [ng/mL] | concentration in plasma, 1 h [ng/mL] | concentration in plasma, 2 h [ng/mL] | concentration in plasma, 4 h [ng/mL]
[7], 0.1 mg/m^3, female | 0.389 | 3.61 | 0.814 | 0.209 | – | – | – | –
[7], 0.1 mg/m^3, male | 0.29 | 2.87 | 1.21 | 0.154 | – | – | – | –
[7], 1 mg/m^3, female | 11.8 | 15.5 | 14.6 | 1.6 | – | – | – | –
[7], 1 mg/m^3, male | 5.1 | 16.6 | 5.12 | 3 | – | – | – | –
[7], 2.5 mg/m^3, female | 23.9 | 52.2 | 12.3 | 1.49 | – | – | – | –
[7], 2.5 mg/m^3, male | 21.7 | 48.1 | 8.15 | 3.18 | – | – | – | –
[8], 0.1 mg/m^3, female | – | – | – | – | 0.174 | 0.689 | 0.344 | 0.0192
[8], 0.1 mg/m^3, male | – | – | – | – | 0.301 | 0.905 | 0.305 | 0.0316
[8], 1 mg/m^3, female | – | – | – | – | 0.399 | 7 | 0.356 | 0.00793
[8], 1 mg/m^3, male | – | – | – | – | 0.606 | 8.58 | 0.97 | 0.00272
[8], 2.5 mg/m^3, female | – | – | – | – | 5.8 | 34.5 | 6.62 | 0.324
[8], 2.5 mg/m^3, male | – | – | – | – | 5.6 | 33.1 | 7.14 | 0.363
